17 compounds from patent US9493485B2, “Spirocyclic dihydro-thiazine and dihydro-oxazine BACE inhibitors, and compositions and uses thereof” (Imago Pharmaceuticals, Inc., priority 2012, dated 2016) can be followed below.

Molecules are shown by their SMILES. Read-outs that look alike come from different tables or passages of the source. Where only a bound is given, the exact number is not on record here.

The target of assay [1] is T1, BACE1 (Homo sapiens (Human), UniProt P56817). The assay can be described thus: BACE1 FP assay. It counts as biochemical. The following applies: pH 4.5. The method, then:
(§1) BACE1 activity can be assessed in an AlphaScreen® assay. Compounds to be assessed (e.g. compounds as described in the above examples) are serially diluted 1:4 in DMSO, then plated by diluting 10 μL of compound with 40 μl of assay buffer (1×PBS, 0.01% Tween-20, pH 7.0, 0.05% BSA). The diluted compound is transferred (4 μL per well) to a 386 well assay plate and 4 μL of BACE1 enzyme ([…]) is added and incubated for 15 minutes. This assay uses a probe that is a BACE1 binding sight ligand linked to biotin, which can be displaced by test compound dependent on compound binding affinity. This of biotinylated probe (4 μL) is added and incubated for 1 hour, followed with 4 μL of donor and acceptor bead mixture and incubated for 2 hours. The fluorescent signal is read on a plate reader and the value as a function of compound concentration is used to determine the IC50. Compounds are also assessed for BACE1 and Cathepsin D activity using an FP Assay. Compounds to be assessed (e.g. compounds as described in the above examples) are serially diluted 1:3 with DMSO and each concentration point is transferred to a 96 well plate, 6 μL per well, followed by addition of 194 μL of assay buffer (100 mM sodium acetate, pH 4.5 with 0.001% Tween-20). A 10 μL compound sample from this plate is transferred to a well of a 384 well plate and combined with 10 μL per well of BACE1 enzyme (0.3 nM in assay buffer) or Cathepsin D enzyme (1.8 nM in assay buffer) and the plate is incubated at room temperature for 30 minutes.

Assay [2] deals with Cathepsin D (Homo sapiens (Human), UniProt P07339). The assay is described as follows: Cathepsin D FP assay. Type of assay: biochemical. The following applies: pH 4.5, read-out: CatD FP IC50. The method, then:
as §1

The test system of assay [3] is BACE1 inhibition in HEKp293 cells transfected with APP751 gene (SWE293). The assay can be described thus: SWE293 cellular assay: reduction of Aβ peptide production, ELISA. Type of assay: cell-based. Conditions: Homo sapiens, read-out: SWE293 ED50. The method, then:
BACE1 inhibition is also assessed in a cellular assay. HEKp293 cells transfected with APP751 gene (SWE293, American Type Culture Collection CRL-1563) are used to assess compounds for reduction in levels of Aβ peptide production. SWE293 cell medium is DMEM supplemented with 10% fetal bovine serum and 2 mM L-glutamine, 1.0 mM sodium pyruvate, 25 mM Hepes Buffer, 0.4 mg/mL geneticin (G418, Gibco BRL 860-181IIJ). Cells are maintained diluting 1:10 for 4 days in T-150 flask and 35 mL of cell media. For plating, cells are rinsed with 5 mL of 1×PBS, trypsinized with 4 mL of 0.05% Tripsin for 1 minute, and 12 mL of cell media is added. These are centrifuged at 1000 rpm for 4 minutes and the media aspirated, then 8 mL of media per flask is added. Based on cell count, appropriate amounts of cell and cell media are combined, and 180 μl per well are plated (96 well) and the plates are incubated overnight at 37° C., 5% CO2. Compounds to be tested are serially diluted 1:3 in DMSO and twice in media (without G418) in V-bottom plates and incubated at room temperature. Plated cells are washed with media, 3×50 μL per well and 17 μL per well of appropriate dilution of compound is added. Plates are incubated for 2 hours, and the wash steps, compound addition and incubation are repeated. Sample is transferred to capture plate (prepared with 266 antibody, see e.g. Johnson-Wood et al., PNAS February 1997, 94: 1550-1555), along with a standard curve of Aβ-40. ELISA assay is used to assess Aβ levels, washing with TBS, 0.05% Tween20 pH 7.5, then adding 1.3 mg/mL 3D6 antibody 1:900 in specimen diluents with thimericol is added (100 μl per well) and incubated for 1 hour. Wash step is repeated and Streptavidin-AP diluted 1:1000 in specimen diluents with thimerisol is added (100 μL per well) and incubated for 1 hour. Wash step is repeated and fluorescent substrate is added, 100 μL per well and incubated for 10 minutes followed by reading the fluorescent signal on a plate reader.

In assay [4] the target is T1, BACE1. The assay can be described thus: BACE1 AlphaScreen assay (displacement of biotinylated BACE1 binding site probe). The following applies: read-out: BACE1 AS IC50. The method, then: as §1
Background: Bead proximity is the source of the signal in Alpha formats.

Where [5] appears, read: dose at which Aβ level is reduced by 50%, HEKp293 SWE293 cells.

T1 sequence (P56817 46-501): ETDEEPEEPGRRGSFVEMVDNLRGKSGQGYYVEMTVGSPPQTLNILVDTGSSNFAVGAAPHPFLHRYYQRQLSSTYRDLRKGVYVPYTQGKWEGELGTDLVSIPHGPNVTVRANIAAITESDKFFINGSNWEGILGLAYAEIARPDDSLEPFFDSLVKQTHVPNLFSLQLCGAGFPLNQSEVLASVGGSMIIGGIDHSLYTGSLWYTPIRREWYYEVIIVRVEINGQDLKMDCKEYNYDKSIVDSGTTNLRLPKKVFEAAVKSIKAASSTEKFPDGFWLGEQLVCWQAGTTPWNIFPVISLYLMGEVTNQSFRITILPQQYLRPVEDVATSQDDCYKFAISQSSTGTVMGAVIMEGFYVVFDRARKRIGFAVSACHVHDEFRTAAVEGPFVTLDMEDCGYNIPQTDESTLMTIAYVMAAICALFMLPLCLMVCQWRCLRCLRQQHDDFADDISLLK
Sequence of Cathepsin D (P07339 65-412, species assumed): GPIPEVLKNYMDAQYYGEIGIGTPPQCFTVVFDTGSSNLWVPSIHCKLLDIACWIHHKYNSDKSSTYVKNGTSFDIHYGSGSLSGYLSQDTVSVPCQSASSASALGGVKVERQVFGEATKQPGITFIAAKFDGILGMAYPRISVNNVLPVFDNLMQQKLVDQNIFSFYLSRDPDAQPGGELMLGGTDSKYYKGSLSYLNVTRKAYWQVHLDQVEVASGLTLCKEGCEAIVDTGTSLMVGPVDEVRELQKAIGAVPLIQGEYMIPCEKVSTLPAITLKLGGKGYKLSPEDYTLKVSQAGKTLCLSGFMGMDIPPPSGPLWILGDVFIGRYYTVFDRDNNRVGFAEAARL

With `C[C@]1(c2cc(NC(=O)c3ccc(F)cn3)ccc2F)CC2(CCC2)SC(N)=N1` [Compound 9-143, (R)—N-(3-(6-amino-8-methyl-5-thia-7-azaspiro[3.5]non-6-en-8-yl)-4-fluorophenyl)-5-fluoropicolinamide], the IC50 is 51.8 µM in assay [1], > 30 µM in assay [2], 6.22 µM in assay [3] (setting [5]) and > 7.5 µM in assay [4].

As to `CC#Cc1cncc(-c2cc([C@]3(C)CC4(CCOCC4)OC(N)=N3)sc2C)c1` [Compound 8-108, (S)-4-methyl-4-(5-methyl-4-(5-(prop-1-ynyl)pyridin-3-yl)thiophen-2-yl)-1,9-dioxa-3-azaspiro[5.5]undec-2-en-2-amine], the IC50 is 1.12 µM in assay [1], 9.32 µM in assay [2], 0.485 µM in assay [3] (setting [5]) and 0.0175 µM in assay [4].

For the compound `C[C@@]1(c2cc(NC(=O)c3ccc(F)cn3)ccc2F)CC2(CCOCC2)SC(N)=N1` [Compound 9-148, (S)—N-(3-(2-amino-4-methyl-9-oxa-1-thia-3-azaspiro[5.5]undec-2-en-4-yl)-4-fluorophenyl)-5-fluoropicolinamide], the IC50 is 0.029 µM in assay [1], > 30 µM in assay [2], 0.0014 µM in assay [3] (setting [5]) and 0.0068 µM in assay [4].

Take `CC#Cc1cncc(-c2csc(C3(C)CC4(CCC4)OC(N)=N3)c2)c1` (centres unmarked) [Compound 8-103, 8-methyl-8-(4-(5-(prop-1-ynyl)pyridin-3-yl)thiophen-2-yl)-5-oxa-7-azaspiro[3.5]non-6-en-6-amine]: the IC50 in assay [1] amounted to 1.36 µM; in assay [2], 7.92 µM; in assay [3] (setting [5]), 0.582 µM; in assay [4], 0.03 µM.

As to `C[C@]1(c2cc(NC(=O)c3ccc(C#N)cn3)ccc2F)N=C(N)OC2(CCC2)C1(F)F` [Compound 9-162, (R)—N-(3-(6-amino-9,9-difluoro-8-methyl-5-oxa-7-azaspiro[3.5]non-6-en-8-yl)-4-fluorophenyl)-5-cyanopicolinamide], the IC50 in assay [1] was 0.04 µM; in assay [2], > 30 µM; in assay [3] (setting [5]) it was 0.039 µM; in assay [4] it was 0.015 µM.

For `C[C@@]1(c2cc(NC(=O)c3ccc(F)cn3)ccc2F)CC2(CCC2)OC(N)=N1` [Compound 9-126, (S)—N-(3-(6-amino-8-methyl-5-oxa-7-azaspiro[3.5]non-6-en-8-yl)-4-fluorophenyl)-5-fluoropicolinamide], the IC50 was 0.321 µM in assay [1], > 30 µM in assay [2], 0.08 µM in assay [3] (setting [5]) and 0.011 µM in assay [4].

For the compound `C[C@@]1(c2cc(NC(=O)c3ncc(Cl)cc3F)ccc2F)CC2(CCC(F)(F)CC2)OC(N)=N1` [Compound 9-133, (S)—N-(3-(2-amino-9,9-difluoro-4-methyl-1-oxa-3-azaspiro[5.5]undec-2-en-4-yl)-4-fluorophenyl)-5-chloro-3-fluoropicolinamide], the IC50 in assay [1] was 0.016 µM; in assay [2] it was > 30 µM; in assay [3] (setting [5]) it was 0.016 µM; in assay [4] it was 0.009 µM.

Regarding `CC#Cc1cncc(-c2csc(C3(C)N=C(N)OC4(CCOCC4)C3(F)F)c2)c1` (centres unmarked) [Compound 8-114, 5,5-difluoro-4-methyl-4-(4-(5-(prop-1-ynyl)pyridin-3-yl)thiophen-2-yl)-1,9-dioxa-3-azaspiro[5.5]undec-2-en-2-amine], the IC50 in assay [1] was found to be 0.626 µM; in assay [2], 5.54 µM; in assay [3] (setting [5]), 2.12 µM; in assay [4], 0.221 µM.

For `CC1(c2cc(NC(=O)c3ccc(Cl)cn3)ccc2F)N=C(N)OC2(CCC2)C1(F)F` (centres unmarked) [Compound 9-160, N-(3-(6-amino-9,9-difluoro-8-methyl-5-oxa-7-azaspiro[3.5]non-6-en-8-yl)-4-fluorophenyl)-5-chloropicolinamide], the IC50 is 0.066 µM in assay [1], > 30 µM in assay [2], 0.268 µM in assay [3] (setting [5]) and 0.0195 µM in assay [4].

Consider `CC1(c2cc(NC(=O)c3ccc(F)cn3)ccc2F)N=C(N)OC2(CCC2)C1(F)F` (centres unmarked) [Compound 9-159, N-(3-(6-amino-9,9-difluoro-8-methyl-5-oxa-7-azaspiro[3.5]non-6-en-8-yl)-4-fluorophenyl)-5-fluoropicolinamide], for which the IC50 in assay [1] is 0.21 µM; in assay [2], > 30 µM; in assay [3], 0.225 µM; in assay [4] it was 0.04 µM.

For the compound `CC#Cc1cncc(-c2csc(C3(C)CC4(CCC(F)(F)CC4)OC(N)=N3)c2)c1` (centres unmarked) [Compound 8-109, 9,9-difluoro-4-methyl-4-(4-(5-(prop-1-ynyl)pyridin-3-yl)thiophen-2-yl)-1-oxa-3-azaspiro[5.5]undec-2-en-2-amine], the IC50 in assay [1] was determined as 1.16 µM; in assay [2] it was 6.29 µM; in assay [3] (setting [5]), 0.621 µM; in assay [4], 0.068 µM.

`Cc1nc(C(=O)Nc2ccc(F)c([C@]3(C)CC4(CCC4)OC(N)=N3)c2)co1` [Compound 9-138, (S)—N-(3-(6-amino-8-methyl-5-oxa-7-azaspiro[3.5]non-6-en-8-yl)-4-fluorophenyl)-2-methyloxazole-4-carboxamide]: the IC50 in assay [1] is 0.299 µM; in assay [2] it was > 30 µM; in assay [3] (setting [5]), 0.023 µM; in assay [4] it was 0.011 µM.

For the compound `C[C@@]1(c2cc(NC(=O)c3ccc(F)cn3)ccc2F)CC2(CCC(F)(F)CC2)OC(N)=N1` [Compound 9-123, (S)—N-(3-(2-amino-9,9-difluoro-4-methyl-1-oxa-3-azaspiro[5.5]undec-2-en-4-yl)-4-fluorophenyl)-5-fluoropicolinamide], the IC50 was 0.27 µM in assay [1], > 30 µM in assay [2], 0.019 µM in assay [3] (setting [5]) and 0.0087 µM in assay [4].

For `CC1(c2cc(-c3cncnc3)ccc2F)CC2(CCOCC2)OC(N)=N1` (centres unmarked) [Compound 8-106, 4-(2-fluoro-5-(pyrimidin-5-yl)phenyl)-4-methyl-1,9-dioxa-3-azaspiro[5.5]undec-2-en-2-amine], the IC50 was 12.6 µM in assay [1], > 30 µM in assay [2], 0.673 µM in assay [3] (setting [5]) and 0.569 µM in assay [4].

Consider `C[C@@]1(c2cc(NC(=O)c3ccc(Cl)cn3)ccc2F)CC2(CCOCC2)SC(N)=N1` [Compound 9-151, (S)—N-(3-(2-amino-4-methyl-9-oxa-1-thia-3-azaspiro[5.5]undec-2-en-4-yl)-4-fluorophenyl)-5-chloropicolinamide], for which the IC50 in assay [1] is 0.005 µM; in assay [2] it was > 30 µM; in assay [3] (setting [5]), 0.0004 µM; in assay [4] it was 0.0097 µM.

Consider `CC1(c2cc(NC(=O)c3ccc(F)cn3)ccc2F)CC2(CCC2)OC(N)=N1` (centres unmarked) [Compound 9-125, N-(3-(6-amino-8-methyl-5-oxa-7-azaspiro[3.5]non-6-en-8-yl)-4-fluorophenyl)-5-fluoropicolinamide], for which the IC50 was 0.366 µM in assay [1], > 30 µM in assay [2], 0.067 µM in assay [3] (setting [5]) and 0.029 µM in assay [4].

Take `CC#Cc1cncc(-c2csc(C3(C)CC4(CCOCC4)OC(N)=N3)c2)c1` (centres unmarked) [Compound 8-102, 4-methyl-4-(4-(5-(prop-1-ynyl)pyridin-3-yl)thiophen-2-yl)-1,9-dioxa-3-azaspiro[5.5]undec-2-en-2-amine]: the IC50 in assay [1] is 2.29 µM; in assay [2], 4.43 µM; in assay [3], 0.365 µM; in assay [4], 0.069 µM.
